Results: patent US20250228807A1, “TRANEXAMIC CLASS ARGININE AND HISTIDINE MIMICS AS THERAPEUTIC AGENTS” (Tranexamic Technologies, LLC, priority 2022, published 2025)
“Also recorded” adds a separate entry of the source.

Columns and labels:
[1] = tested on: MDA-MB 468 triple-negative breast cancer cells; test: MTT cell viability assay; type: cell-based; conditions: MDA-MB-468, 72 h, relative to TA
Experimental: Effects of compounds on cell viability. MDA-MB 468 triple-negative breast cancer cells were plated at 6,250 cells per well in a 96-well plate and incubated overnight at 37° C. Cell viability was evaluated using the MTT (3-(4,5-dimethylthiazol-2-yl)-2,5-diphenyltetrazolium bromide) assay carried out according to manufacturer's instructions.

[2] = Aqueous solubility / preparation of solutions in PBS buffer; type: physicochemical; conditions: for solubility: concentration of solution: PBS buffer
Experimental: Chemical synthesis and solubility. TA was purchased from commercial sources and TA-NAc was prepared straightforwardly through acetylation of TA based on standard practices.
TA-R1-R4 were accessible from their corresponding amino acids through treatment with methylisothiourea hemisulfate. […] Esterification of TA-R1 to produce TA-R1OMe, a novel compound, improved the solubility for preparation of a 2% (w/v) solution in phosphate buffered saline (PBS) buffer (pH=7.4) and biological testing.
The requisite amino acids for synthesis of TA-R3/R4 required multistep synthetic approaches. Briefly, the preparation of TA-R3, a novel compound, began from cis-1,3-cyclohexanedicarboxylic acid and proceeded through eight sequential synthetic steps to afford the product as its HCl salt. Protection/deprotection of the amino group was required to facilitate purification, as was a stepwise oxidation sequence from the alcohol to the carboxylic acid. […] The approach to TA-R4, a known compound, required one additional step to produce the starting dicarboxylic acid, in this case through oxidative cleavage of norbornene. […] All the final compounds were fully characterized by ^1H nuclear magnetic resonance (NMR), ^13C NMR, and high-resolution electrospray ionization mass spectrometry (HRMS-ESI).

[3] = tested on: programmed death-ligand 1 (PD-L1); test: Immunoblot analysis of treated MDA-MB-468 cells: PD-L1 expression; type: cell-based; conditions: high (2%) concentration
Source text: (§1) Biochemical evaluation of treatment of breast cancer cells with TA-R2. […] This is important because PD-L1 expression in cancer cells blocks T-cell-based immunity. So, TA-R2 would be predicted to increase anticancer immunity in immunocompetent systems. Histone acetyltransferase (HAT) enzyme assays were used to determine if TA-R2 inhibits p300 activity. […] This fits with the hypothesis that TAs act in part by inhibiting acetyltransferases such as p300/CPB that acetylate histones. No acetylation is observed in controls upon omission of H3/p300 or acetyl coenzyme A (Acetyl CoA).

recombinant p300 = target: T1, recombinant p300 (Homo sapiens, UniProt Q09472); test: p300 histone acetyltransferase (HAT) enzyme assay; type: biochemical; conditions: for p300 acetylation of Histone 3 (H3) in vitro: recombinant p300, Histone H3, tritiated acetyl CoA, TA at 2%
T1 construct: purchased
Experimental: Inhibition of p300 acetyltransferase activity. p300 enzyme assays were carried out with TA, TA-NAc, and TA-R2 using commercially available recombinant p300, and recombinant, commercial Histone H3 and tritiated acetyl CoA as the substrates. P300 assays were performed in the presence of increasing concentrations of each compound and acetylation of […] was evaluated by scintillation counting of Histone H3 adsorbed to 1 cm×1 cm nitrocellulose squares, after extensive washing of the nitrocellulose squares with 20% trichloroacetic acid.
as §1

MYC oncogene = test: Immunoblot analysis of treated MDA-MB-468 cells: MYC expression; type: cell-based
Source text: as §1

T1 sequence (Q09472 whole entry, species assumed): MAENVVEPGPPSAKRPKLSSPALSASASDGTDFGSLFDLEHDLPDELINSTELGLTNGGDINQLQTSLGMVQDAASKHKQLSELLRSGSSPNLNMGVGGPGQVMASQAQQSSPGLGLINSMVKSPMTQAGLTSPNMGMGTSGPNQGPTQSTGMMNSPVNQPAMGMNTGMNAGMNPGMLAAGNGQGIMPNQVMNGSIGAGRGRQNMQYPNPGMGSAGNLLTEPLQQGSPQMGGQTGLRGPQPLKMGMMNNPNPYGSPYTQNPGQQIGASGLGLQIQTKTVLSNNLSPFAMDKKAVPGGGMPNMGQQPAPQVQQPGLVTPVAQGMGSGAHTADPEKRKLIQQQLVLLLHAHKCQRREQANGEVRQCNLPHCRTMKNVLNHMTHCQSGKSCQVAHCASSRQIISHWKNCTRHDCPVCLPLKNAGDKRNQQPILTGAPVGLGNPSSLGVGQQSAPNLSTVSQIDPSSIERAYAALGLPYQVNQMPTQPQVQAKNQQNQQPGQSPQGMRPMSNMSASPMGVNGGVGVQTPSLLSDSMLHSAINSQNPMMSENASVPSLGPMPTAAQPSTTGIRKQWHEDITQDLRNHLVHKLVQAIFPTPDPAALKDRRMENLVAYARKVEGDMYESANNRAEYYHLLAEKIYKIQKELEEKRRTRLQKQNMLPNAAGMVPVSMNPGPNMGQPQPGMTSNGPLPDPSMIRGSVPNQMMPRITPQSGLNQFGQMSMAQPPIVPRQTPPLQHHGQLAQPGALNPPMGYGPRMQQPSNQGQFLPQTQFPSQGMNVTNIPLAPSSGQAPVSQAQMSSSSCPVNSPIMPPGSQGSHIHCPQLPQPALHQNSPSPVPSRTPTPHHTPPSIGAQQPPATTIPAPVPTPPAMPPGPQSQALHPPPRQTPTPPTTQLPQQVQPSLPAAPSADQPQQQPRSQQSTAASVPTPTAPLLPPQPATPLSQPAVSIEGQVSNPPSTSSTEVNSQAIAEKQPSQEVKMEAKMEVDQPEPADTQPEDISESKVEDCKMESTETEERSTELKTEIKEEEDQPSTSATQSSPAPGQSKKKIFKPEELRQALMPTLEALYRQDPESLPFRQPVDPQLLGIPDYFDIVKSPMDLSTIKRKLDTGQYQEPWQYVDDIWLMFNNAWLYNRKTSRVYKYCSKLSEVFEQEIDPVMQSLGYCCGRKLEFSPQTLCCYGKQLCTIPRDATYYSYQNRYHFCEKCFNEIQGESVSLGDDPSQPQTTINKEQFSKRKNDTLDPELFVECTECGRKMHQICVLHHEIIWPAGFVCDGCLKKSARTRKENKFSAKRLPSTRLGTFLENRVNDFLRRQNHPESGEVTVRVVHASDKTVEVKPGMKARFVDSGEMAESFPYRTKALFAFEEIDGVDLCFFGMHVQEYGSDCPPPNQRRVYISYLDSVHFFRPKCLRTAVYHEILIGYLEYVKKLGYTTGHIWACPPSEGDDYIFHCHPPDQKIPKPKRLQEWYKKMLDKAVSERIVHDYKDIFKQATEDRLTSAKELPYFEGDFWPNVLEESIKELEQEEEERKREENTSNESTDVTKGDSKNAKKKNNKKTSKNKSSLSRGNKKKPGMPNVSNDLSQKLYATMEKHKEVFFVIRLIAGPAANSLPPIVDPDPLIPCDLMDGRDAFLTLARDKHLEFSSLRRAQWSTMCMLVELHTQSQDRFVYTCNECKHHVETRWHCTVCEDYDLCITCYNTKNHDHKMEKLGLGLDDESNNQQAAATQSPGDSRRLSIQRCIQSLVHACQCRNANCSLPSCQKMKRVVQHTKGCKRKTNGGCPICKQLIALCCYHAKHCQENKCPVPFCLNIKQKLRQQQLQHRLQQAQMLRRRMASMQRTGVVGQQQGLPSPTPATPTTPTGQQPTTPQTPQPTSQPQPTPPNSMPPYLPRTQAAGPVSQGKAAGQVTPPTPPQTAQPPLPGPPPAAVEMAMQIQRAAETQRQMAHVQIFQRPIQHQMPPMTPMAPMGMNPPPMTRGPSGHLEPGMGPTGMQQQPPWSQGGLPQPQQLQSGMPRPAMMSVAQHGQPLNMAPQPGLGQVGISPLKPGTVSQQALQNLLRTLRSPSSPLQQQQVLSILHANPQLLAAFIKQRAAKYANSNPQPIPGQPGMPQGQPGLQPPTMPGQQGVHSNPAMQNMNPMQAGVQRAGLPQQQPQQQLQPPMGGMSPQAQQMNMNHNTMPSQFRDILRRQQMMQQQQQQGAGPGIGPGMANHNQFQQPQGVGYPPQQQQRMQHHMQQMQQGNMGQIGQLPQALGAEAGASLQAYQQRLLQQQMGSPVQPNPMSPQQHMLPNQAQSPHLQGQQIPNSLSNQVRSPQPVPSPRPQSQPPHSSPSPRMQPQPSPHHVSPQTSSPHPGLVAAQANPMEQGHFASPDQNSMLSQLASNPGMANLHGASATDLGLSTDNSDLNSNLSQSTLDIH

Row | Compound | fold lower IC50 than TA (cytotoxicity) [1] | aqueous solubility (in words) [2] | solubility: concentration of solution [2] | PD-L1 expression [3] | further results
1 | Cl.N=C(N)NC[C@H]1CCC[C@@H](C(=O)O)C1 (relative stereo) [TA-R3, cis-amino(((3-carboxycyclohexyl)methyl)amino)methaniminium chloride] | approximately 10 fold | insolubility; also recorded: poor aqueous solubility | ~0.1% | – | –
2 | COC(=O)[C@@H]1CCC[C@H](CNC(=N)N)C1.Cl (relative stereo) [TA-R3-OMe, cis-amino(((3 (methoxycarbonyl)cyclohexyl)methyl)amino)methaniminium chloride] | approximately 10 fold | – | ca. 2% | – | –
3 | N=C(N)NC[C@@H]1CC[C@H](C(=O)O)C1 (relative stereo) [TA-R4, cis-3-(guanidinomethyl)cyclopentane-1-carboxylic acid] | – | sufficient solubility | ca. 2% | – | –
4 | NC[C@H]1CC[C@H](C(=O)O)CC1 [TA, Tranexamic acid, reference compound] | – | – | – | do not | p300 acetylation of Histone 3 (H3) in vitro (recombinant p300): does not affect
5 | CC(=O)NCC1CCC(C(=O)[O-])CC1.[Na+] (stereo not drawn) [TA-NAc, reference compound] | – | better aqueous solubility | – | do not | –
6 | N=C(N)NC[C@H]1CC[C@H](C(=O)O)CC1 [TA-R1, trans-4-guanidinomethylcyclohexanecarboxylic acid] | – | poor aqueous solubility | – | – | –
7 | COC(=O)[C@H]1CC[C@H](CNC(=N)N)CC1.Cl [TA-R1-OMe, amino((((1r,4r)-4-(methoxycarbonyl)cyclohexyl)methyl)amino)methaniminium chloride] | approximately 10 fold | – | – | – | solubility: concentration of solution prepared ([2]; phosphate buffered saline (PBS) buffer (pH=7.4)): 2 % (w/v)
8 | Cl.N=C(N)N[C@H]1CC[C@H](C(=O)O)CC1 [TA-R2, amino(((1r,4r)-4-carboxycyclohexyl)amino)methaniminium chloride] | – | good aqueous solubility | – | decreases programmed death-ligand 1 (PD-L1) | expression of the MYC oncogene at 0.5% (MYC oncogene; 0.5%): downregulated MYC; expression of the MYC oncogene at 2% (w/v) (MYC oncogene; 2% (w/v), compared with TA): downregulated expression of the MYC oncogene; expression of the MYC oncogene (MYC oncogene; compared with TA and TA-NAc at the same concentrations): decreases expression of the MYC oncogene to a greater extent than TA or NAc-TA; histone acetylation at 2% (w/v) compared with TA (recombinant p300; 2% (w/v)): reduced histone acetylation to a greater extent than TA; p300 acetylation of Histone 3 (H3) in vitro (recombinant p300): decreases histone acetylation more strongly than the other two compounds
